Common to all, as to type: functional, organism-based, Hepacivirus hominis
Assay [1] concerns Hepatitis C virus. In words: Antiviral activity against HCV genotype 1a assessed as decrease in HCV replicon RNA replication after 3 days by taqman assay based cell based replicon method. Conditions: subtype 1a, 72 h. In general terms: In antiviral work, replicon cells carry a viral genome segment that copies itself.
For assay [2], the system named is Hepatitis C virus. Nature of the assay: Antiviral activity against HCV genotype 2a assessed as decrease in HCV replicon RNA replication after 3 days by taqman assay based cell based replicon method. The following applies: 72 h.
Assay [3] deals with Hepatitis C virus. In words: Antiviral activity against HCV genotype 3a assessed as decrease in HCV replicon RNA replication after 3 days by taqman assay based cell based replicon method. The following applies: 72 h.
In assay [4] the test system is Hepatitis C virus. Nature of the assay: Antiviral activity against HCV genotype 1b assessed as decrease in HCV replicon RNA replication after 3 days by taqman assay based cell based replicon method. The following applies: 72 h.
Assay [5] deals with Hepatitis C virus. In words: Antiviral activity against HCV genotype 1a expressing NS5A Y93H mutant assessed as decrease in HCV replicon RNA replication after 3 days by taqman assay based cell based replicon method. Conditions: subtype 1a, 72 h.

What is called EC50 is the concentration that produces a half-maximal response.

Each structure is given as a SMILES string.

As to `C/C=C1/c2ccc(-c3cnc([C@@H]4CCCN4C(=O)[C@@H](NC(=O)OC)C(C)C)[nH]3)cc2Oc2ccc(-c3cnc([C@@H]4CCCN4C(=O)[C@@H](NC(=O)OC)C(C)C)[nH]3)cc21`, the EC50 in the assay with Hepatitis C virus [1] is 0.06 nM; in the assay with Hepatitis C virus [2], 0.03 nM; in the assay with Hepatitis C virus [3], 0.4 nM; with Hepatitis C virus [4] it was 0.007 nM; with Hepatitis C virus [5] it was 9 nM.

`CCCC/C=C1/c2ccc(-c3cnc([C@@H]4CCCN4C(=O)[C@@H](NC(=O)OC)C(C)C)[nH]3)cc2Oc2ccc(-c3cnc([C@@H]4CCCN4C(=O)[C@@H](NC(=O)OC)C(C)C)[nH]3)cc21`: the EC50 is above 0.1 nM in the assay on Hepatitis C virus [1]; 0.05 nM with Hepatitis C virus [2]; 0.4 nM in the assay on Hepatitis C virus [3]; 0.006 nM in the assay on Hepatitis C virus [4]; 260 nM with Hepatitis C virus [5].

Consider `COC(=O)N[C@H](C(=O)N1CCC[C@H]1c1ncc(-c2ccc3c(c2)C(=O)c2ccc(-c4cnc([C@@H]5CCCN5C(=O)[C@@H](NC(=O)OC)C(C)C)[nH]4)cc2C3=O)[nH]1)C(C)C`, for which the EC50 in the assay on Hepatitis C virus [1] was 0.09 nM; in the assay with Hepatitis C virus [2], 0.7 nM; in the assay on Hepatitis C virus [4] it was 0.007 nM; in the assay with Hepatitis C virus [5], 35 nM.

In the case of `COC(=O)N[C@H](C(=O)N1CCC[C@H]1c1ncc(-c2ccc3c(=O)c4cc(-c5cnc([C@@H]6CCCN6C(=O)[C@@H](NC(=O)OC)C(C)C)[nH]5)ccc4oc3c2)[nH]1)C(C)C`, the EC50 was 0.01 nM in the assay on Hepatitis C virus [1], 0.1 nM in the assay with Hepatitis C virus [2], 0.002 nM in the assay with Hepatitis C virus [4] and 1730 nM in the assay with Hepatitis C virus [5].

For the compound `COC(=O)N[C@H](C(=O)N1CCC[C@H]1c1ncc(-c2ccc3c(Cl)c4cc(-c5cnc([C@@H]6CCCN6C(=O)[C@@H](NC(=O)OC)C(C)C)[nH]5)ccc4cc3c2)[nH]1)C(C)C`, the EC50 in the assay with Hepatitis C virus [1] worked out at 0.05 nM; in the assay with Hepatitis C virus [2], 0.01 nM; in the assay on Hepatitis C virus [3], 0.6 nM; in the assay with Hepatitis C virus [4], 0.003 nM; with Hepatitis C virus [5] it was 66 nM.

For `COC(=O)N[C@H](C(=O)N1CCC[C@H]1c1ncc(-c2ccc3nc4cc(-c5cnc([C@@H]6CCCN6C(=O)[C@@H](NC(=O)OC)C(C)C)[nH]5)ccc4cc3c2)[nH]1)C(C)C`, the EC50 with Hepatitis C virus [1] was determined as 0.05 nM; in the assay on Hepatitis C virus [2] it was 0.04 nM; in the assay with Hepatitis C virus [4], 0.01 nM; with Hepatitis C virus [5] it was 1050 nM.

In the case of `COC(=O)N[C@H](C(=O)N1CCC[C@H]1c1ncc(-c2ccc3c(c2)Oc2ccc(-c4cnc([C@@H]5CCCN5C(=O)[C@@H](NC(=O)OC)C(C)C)[nH]4)cc2C3C)[nH]1)C(C)C` (stereo partly specified), the EC50 in the assay on Hepatitis C virus [1] was found to be 0.05 nM; in the assay with Hepatitis C virus [2], 0.004 nM; in the assay on Hepatitis C virus [3], 0.08 nM; in the assay with Hepatitis C virus [4], 0.009 nM.

On to `COC(=O)N[C@H](C(=O)N1CCC[C@H]1c1ncc(-c2ccc3c(c2)Oc2ccc(-c4cnc([C@@H]5CCCN5C(=O)[C@@H](NC(=O)OC)C(C)C)[nH]4)cc2S3(=O)=O)[nH]1)C(C)C`, for which the EC50 with Hepatitis C virus [1] was above 1 nM; with Hepatitis C virus [2], 0.8 nM; in the assay with Hepatitis C virus [3], 16 nM; in the assay with Hepatitis C virus [4], 0.06 nM; in the assay with Hepatitis C virus [5], 2380 nM.

Turning to `COC(=O)N[C@H](C(=O)N1CCC[C@H]1c1ncc(-c2ccc3c(C)c4cc(-c5cnc([C@@H]6CCCN6C(=O)[C@@H](NC(=O)OC)C(C)C)[nH]5)ccc4cc3c2)[nH]1)C(C)C`, the EC50 with Hepatitis C virus [1] was determined as 0.02 nM; with Hepatitis C virus [2], 0.005 nM; in the assay on Hepatitis C virus [3] it was 0.5 nM; in the assay on Hepatitis C virus [4], 0.005 nM; in the assay with Hepatitis C virus [5], 42 nM.

In the case of `COC(=O)N[C@H](C(=O)N1CCC[C@H]1c1ncc(-c2ccc3nc4cc(-c5cnc([C@@H]6CCCN6C(=O)[C@@H](NC(=O)OC)C(C)C)[nH]5)ccc4nc3c2)[nH]1)C(C)C`, the EC50 in the assay with Hepatitis C virus [1] is 0.06 nM; in the assay with Hepatitis C virus [2] it was 0.1 nM; in the assay on Hepatitis C virus [3], 0.2 nM; in the assay on Hepatitis C virus [4], 0.06 nM; in the assay on Hepatitis C virus [5], 61 nM.

On to `CCC1c2ccc(-c3cnc([C@@H]4CCCN4C(=O)[C@@H](NC(=O)OC)C(C)C)[nH]3)cc2Oc2ccc(-c3cnc([C@@H]4CCCN4C(=O)[C@@H](NC(=O)OC)C(C)C)[nH]3)cc21` (stereo partly specified), for which the EC50 stood at 0.02 nM in the assay with Hepatitis C virus [1]; 0.005 nM in the assay on Hepatitis C virus [2]; 0.07 nM with Hepatitis C virus [3]; 0.004 nM with Hepatitis C virus [4]; 24 nM in the assay with Hepatitis C virus [5].

These data come from ChEMBL document CHEMBL3808305, “Discovery of fused tricyclic core containing HCV NS5A inhibitors with pan-genotype activity” (Bioorg Med Chem Lett, 2016).
